According to US8822517B2, “Arylosulfonamides for the treatment of CNS diseases” (Adamed SP. Z O.O., priority 2010, dated 2014):

Key:
[1] = molecular target: serotoninergic 5-HT7 receptor (Homo sapiens, UniProt P34969); experiment: Binding assay 5-HT7 (h), [3H]LSD, CHO cells; design: expressed in transfected cells; host or cells: CHO cells; conditions: read-out: 5-HT7
Outline: (§1)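 Detection relied on scintillation counting of bound ligand. Compounds at 1×10^−6 M were evaluated against specific binding, i.e. total binding corrected for the nonspecific fraction seen with excess unlabelled ligand.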

[2] = molecular target: serotoninergic 5-HT6 receptor (Homo sapiens, UniProt P50406); experiment: Binding assay 5-HT6 (h), [3H]LSD, CHO cells; design: expressed in transfected cells; host or cells: CHO cells; conditions: read-out: 5-HT6
Chain of serotoninergic 5-HT6 receptor (P50406 whole entry): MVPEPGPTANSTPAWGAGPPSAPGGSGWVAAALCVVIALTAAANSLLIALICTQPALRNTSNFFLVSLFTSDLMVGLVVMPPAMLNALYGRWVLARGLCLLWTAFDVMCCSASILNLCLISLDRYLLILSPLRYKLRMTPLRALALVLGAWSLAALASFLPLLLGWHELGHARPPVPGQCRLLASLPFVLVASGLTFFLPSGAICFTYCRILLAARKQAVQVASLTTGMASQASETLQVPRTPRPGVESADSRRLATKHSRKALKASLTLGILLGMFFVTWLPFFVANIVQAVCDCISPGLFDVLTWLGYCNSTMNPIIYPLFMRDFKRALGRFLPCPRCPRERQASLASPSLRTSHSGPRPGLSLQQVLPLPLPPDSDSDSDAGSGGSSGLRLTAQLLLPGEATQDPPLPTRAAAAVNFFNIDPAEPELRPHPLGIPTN
Outline: as §1

[3] = molecular target: T1, serotonine transporter (SERT) receptor (Homo sapiens, UniProt P31645); experiment: Binding assay SERT (h), [3H]imipramine, CHO cells; conditions: read-out: SERT [%]
T1 construct: expressed in transfected cells; host or cells: CHO cells
T1 sequence (P31645 whole entry): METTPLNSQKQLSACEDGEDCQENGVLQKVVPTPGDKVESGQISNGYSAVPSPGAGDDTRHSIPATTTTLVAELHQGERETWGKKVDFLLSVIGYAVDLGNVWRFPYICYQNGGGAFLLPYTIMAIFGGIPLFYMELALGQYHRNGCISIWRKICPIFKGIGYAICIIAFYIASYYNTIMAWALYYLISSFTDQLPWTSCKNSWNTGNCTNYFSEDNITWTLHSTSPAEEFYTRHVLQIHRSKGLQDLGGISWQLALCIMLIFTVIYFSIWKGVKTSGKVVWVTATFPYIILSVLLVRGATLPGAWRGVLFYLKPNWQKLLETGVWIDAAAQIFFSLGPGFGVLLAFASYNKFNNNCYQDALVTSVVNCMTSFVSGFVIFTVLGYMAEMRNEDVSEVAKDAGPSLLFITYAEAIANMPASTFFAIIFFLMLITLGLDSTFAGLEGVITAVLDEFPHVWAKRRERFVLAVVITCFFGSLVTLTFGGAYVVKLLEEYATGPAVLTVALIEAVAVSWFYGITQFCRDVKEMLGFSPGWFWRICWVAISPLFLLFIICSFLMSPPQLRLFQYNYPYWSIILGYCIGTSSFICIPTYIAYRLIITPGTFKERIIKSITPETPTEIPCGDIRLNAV
Outline: as §1

[4] = molecular target: serotoninergic 5-HT2A receptor (Homo sapiens, UniProt P28223); experiment: Binding assay 5-HT2A (h), [3H]ketanserin, HEK-293 cells; design: expressed in transfected cells; host or cells: HEK-293 cells; conditions: read-out: 5-HT2A
Chain of serotoninergic 5-HT2A receptor (P28223 whole entry): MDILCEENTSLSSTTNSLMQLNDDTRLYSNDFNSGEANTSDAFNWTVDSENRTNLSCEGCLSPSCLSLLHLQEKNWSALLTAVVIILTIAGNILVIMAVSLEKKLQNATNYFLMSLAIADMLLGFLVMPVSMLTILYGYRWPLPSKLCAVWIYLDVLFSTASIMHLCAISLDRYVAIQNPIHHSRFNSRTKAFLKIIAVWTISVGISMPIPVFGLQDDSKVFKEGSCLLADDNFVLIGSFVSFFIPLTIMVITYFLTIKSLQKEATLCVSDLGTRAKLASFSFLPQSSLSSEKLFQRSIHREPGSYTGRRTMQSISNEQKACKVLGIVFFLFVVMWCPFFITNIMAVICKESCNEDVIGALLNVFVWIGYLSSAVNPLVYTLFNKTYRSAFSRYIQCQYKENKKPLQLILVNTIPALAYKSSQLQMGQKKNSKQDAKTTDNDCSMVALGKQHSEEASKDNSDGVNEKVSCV
Outline: as §1

dopaminergic D3 receptor = dopaminergic D3 receptor (Homo sapiens, UniProt P35462); experiment: Binding assay D3 (h), [3H]methyl-spiperone, CHO cells; design: expressed in transfected cells; host or cells: CHO cells; conditions: read-out: D3 [%]
Chain of dopaminergic D3 receptor (P35462 whole entry): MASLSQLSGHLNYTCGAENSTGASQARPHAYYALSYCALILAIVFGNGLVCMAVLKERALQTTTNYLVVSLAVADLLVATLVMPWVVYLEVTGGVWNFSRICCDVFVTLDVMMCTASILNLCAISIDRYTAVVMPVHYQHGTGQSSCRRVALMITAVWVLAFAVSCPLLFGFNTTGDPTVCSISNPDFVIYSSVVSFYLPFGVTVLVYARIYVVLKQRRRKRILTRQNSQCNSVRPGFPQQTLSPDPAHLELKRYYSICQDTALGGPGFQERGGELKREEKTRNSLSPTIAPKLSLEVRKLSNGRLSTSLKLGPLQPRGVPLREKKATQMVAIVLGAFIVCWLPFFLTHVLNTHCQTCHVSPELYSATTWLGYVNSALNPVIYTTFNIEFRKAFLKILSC
Outline: as §1

dopaminergic D2 receptor = dopaminergic D2 receptor (Homo sapiens, UniProt P14416); experiment: Binding assay D2S (h), [3H]methyl-spiperone, HEK-293 cells; design: expressed in transfected cells; host or cells: HEK-293 cells; conditions: read-out: D2 [%]
Chain of dopaminergic D2 receptor (P14416 1-414 isoform P14416-2): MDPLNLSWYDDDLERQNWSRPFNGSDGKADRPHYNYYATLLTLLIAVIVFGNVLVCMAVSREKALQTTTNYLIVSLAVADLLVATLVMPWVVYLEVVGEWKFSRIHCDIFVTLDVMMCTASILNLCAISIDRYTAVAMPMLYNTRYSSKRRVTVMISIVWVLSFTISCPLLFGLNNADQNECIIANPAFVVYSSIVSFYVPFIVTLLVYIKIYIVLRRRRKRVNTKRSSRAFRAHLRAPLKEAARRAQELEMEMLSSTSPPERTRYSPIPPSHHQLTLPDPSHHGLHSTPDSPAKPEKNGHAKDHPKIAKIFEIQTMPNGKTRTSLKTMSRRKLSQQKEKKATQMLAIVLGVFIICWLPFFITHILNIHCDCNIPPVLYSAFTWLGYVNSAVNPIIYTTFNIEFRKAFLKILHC
Outline: as §1

[5] = molecular target: T2, serotoninergic 5-HT1A receptor (Homo sapiens, UniProt P08908); experiment: Binding assay 5-HT1A (h), [3H]8-OH-DPAT, HEK-293 cells; design: expressed in transfected cells; host or cells: HEK-293 cells; conditions: read-out: 5-HT1A
T2 sequence (P08908 1-422): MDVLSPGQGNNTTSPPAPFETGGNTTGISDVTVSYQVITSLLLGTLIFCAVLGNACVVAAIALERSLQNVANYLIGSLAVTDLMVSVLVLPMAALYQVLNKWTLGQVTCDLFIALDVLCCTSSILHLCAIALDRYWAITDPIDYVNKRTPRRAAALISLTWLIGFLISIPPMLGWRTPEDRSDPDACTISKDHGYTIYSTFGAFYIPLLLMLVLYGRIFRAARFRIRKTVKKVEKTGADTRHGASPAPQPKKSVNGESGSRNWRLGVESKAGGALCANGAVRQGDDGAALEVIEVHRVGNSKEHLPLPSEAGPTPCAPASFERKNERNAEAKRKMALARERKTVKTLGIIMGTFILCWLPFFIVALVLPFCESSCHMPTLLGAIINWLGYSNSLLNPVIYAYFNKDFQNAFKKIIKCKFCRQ
Outline: as §1

adrenergic α1 receptor = experiment: Binding assay α1 (non-selective), [3H]prazosin, rat cerebral cortex; conditions: percent inhibition of control specific binding; compounds tested at 1×10^−6 M
Outline: as §1

Chain of serotoninergic 5-HT7 receptor (P34969 whole entry): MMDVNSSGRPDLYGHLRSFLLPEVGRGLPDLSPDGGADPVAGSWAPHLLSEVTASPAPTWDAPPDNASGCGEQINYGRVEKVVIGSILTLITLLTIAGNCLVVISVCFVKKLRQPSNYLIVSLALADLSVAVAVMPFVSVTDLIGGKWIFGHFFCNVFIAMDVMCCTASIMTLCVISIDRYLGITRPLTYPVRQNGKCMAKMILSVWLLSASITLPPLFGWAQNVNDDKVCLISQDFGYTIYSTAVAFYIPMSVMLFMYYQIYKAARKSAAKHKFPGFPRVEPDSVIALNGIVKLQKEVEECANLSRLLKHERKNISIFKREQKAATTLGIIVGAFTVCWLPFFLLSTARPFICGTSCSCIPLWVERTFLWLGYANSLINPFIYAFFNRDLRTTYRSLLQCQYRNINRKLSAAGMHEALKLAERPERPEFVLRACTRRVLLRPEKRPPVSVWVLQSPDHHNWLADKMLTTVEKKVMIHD

SMILES	inhibition at 1 µM [1] [%]	inhibition at 1 µM [2] [%]	inhibition at 1 µM [3] [%]	inhibition at 1 µM [4] [%]	inhibition at 1 µM (dopaminergic D3 receptor) [%]	inhibition at 1 µM (dopaminergic D2 receptor) [%]	inhibition at 1 µM [5] [%]	α1 [%] (adrenergic α1 receptor)
O=S(=O)(NCCCCN1CCN(c2nsc3ccccc23)CC1)c1cccc(Br)c1 [Compound 230, N-[4-[4-(1,2-Benzothiazol-3-yl)piperazin-1-yl]butyl]-3-bromobenzenesulphonamide]	101	85	13	87	87	105	85	98
COc1cccc(S(=O)(=O)NCCCCN2CCN(c3nsc4ccccc34)CC2)c1 [Compound 232, N-[4-[4-(1,2-Benzothiazol-3-yl)piperazin-1-yl]butyl]-3-methoxybenzenesulphonamide]	89	76	13	100	89	92	89	94
CC(C)(C)c1ccc(S(=O)(=O)NCCCCN2CCN(c3nsc4ccccc34)CC2)cc1 [Compound 233, N-[4-[4-(1,2-Benzothiazol-3-yl)piperazin-1-yl]butyl]-4-tert-butyl-benzenesulphonamide]	93	76	5	100	76	83	53	94
O=S(=O)(NCCCCN1CCN(c2nsc3ccccc23)CC1)c1ccc(C(F)(F)F)cc1 [Compound 234, N-[4-[4-(1,2-Benzothiazol-3-yl)piperazin-1-yl]butyl]-4-(trifluoromethyl)benzenesulphonamide]	97	62	32	92	91	85	95	91
O=S(=O)(NCCCCN1CCN(c2nsc3ccccc23)CC1)c1cccc(C(F)(F)F)c1 [Compound 235, N-[4-[4-(1,2-Benzothiazol-3-yl)piperazin-1-yl]butyl]-3-(trifluoromethyl)benzenesulphonamide]	93	82	8	80	87	103	86	95
O=S(=O)(NCCCCN1CCN(c2nsc3ccccc23)CC1)c1ccc(OC(F)(F)F)cc1 [Compound 236, N-[4-[4-(1,2-Benzothiazol-3-yl)piperazin-1-yl]butyl]-4-(trifluoromethoxy)benzenesulphonamide]	91	67	-15	89	85	99	76	92
O=S(=O)(NCCCCN1CCN(c2nsc3ccccc23)CC1)c1ccc(-c2ccccc2)cc1 [Compound 237, N-[4-[4-(1,2-Benzothiazol-3-yl)piperazin-1-yl]butyl]-4-phenylbenzenesulphonamide]	64	89	-7	24	85	62	51	87
O=S(=O)(NCCCCN1CCN(c2nsc3ccccc23)CC1)c1cccs1 [Compound 238, N-[4-[4-(1,2-Benzothiazol-3-yl)piperazin-1-yl]butyl]thiophene-2-sulphonamide]	88	74	13	95	85	87	90	103
O=S(=O)(NCCCCN1CCN(c2nsc3ccccc23)CC1)c1ccc2c(c1)CCO2 [Compound 242, N-[4-[4-(1,2-Benzothiazol-3-yl)piperazin-1-yl]butyl]-2,3-dihydrobenzofuran-5-sulphonamide]	101	73	12	94	89	105	92	98
O=S(=O)(NCCCCN1CCN(c2nsc3ccccc23)CC1)c1ccc2cn[nH]c2c1 [Compound 244, N-[4-[4-(1,2-Benzothiazol-3-yl)piperazin-1-yl]butyl]-1H-indazole-6-sulphonamide]	98	81	19	96	91	105	69	98
O=S(=O)(NCCCCN1CCN(c2nsc3ccccc23)CC1)c1cnc2ccccn12 [Compound 246, N-[4-[4-(1,2-Benzothiazol-3-yl)piperazin-1-yl]butyl]imidazo[1,2-a]pyridine-3-sulphonamide]	86	49	31	88	86	98	91	99
O=S(=O)(NCCCCN1CCN(c2nsc3ccccc23)CC1)c1c[nH]c2ncccc12 [Compound 247, N-[4-[4-(1,2-Benzothiazol-3-yl)piperazin-1-yl]butyl]-1H-pyrrolo[2,3-b]pyridine-3-sulphonamide]	93	93	14	88	83	104	78	98
O=S(=O)(NCCCN1CCN(c2nsc3ccccc23)CC1)c1cccc(O)c1 [Compound 254, N-[3-[4-(1,2-Benzothiazol-3-yl)piperazin-1-yl]propyl]-3-hydroxybenzenesulphonamide]	93	76	9	90	98	87	94	96
COc1cccc(S(=O)(=O)NCCCN2CCN(c3nsc4ccccc34)CC2)c1 [Compound 255, N-[3-[4-(1,2-Benzothiazol-3-yl)piperazin-1-yl]propyl]-3-methoxybenzenesulphonamide]	91	68	29	84	82	98	93	92
O=S(=O)(NCCCN1CCN(c2nsc3ccccc23)CC1)c1ccc(OC(F)(F)F)cc1 [Compound 259, N-[3-[4-(1,2-Benzothiazol-3-yl)piperazin-1-yl]propyl]-4-(trifluoromethoxy)benzenesulphonamide]	96	74	16	56	85	93	97	88
O=S(=O)(NCCCN1CCN(c2nsc3ccccc23)CC1)c1cc2ccc(Cl)cc2s1 [Compound 264, N-[3-[4-(1,2-Benzothiazol-3-yl)piperazin-1-yl]propyl]-6-chlorobenzothiophene-2-sulphonamide]	75	63	-18	105	65	87	54	53
O=S(=O)(NCCCN1CCN(c2nsc3ccccc23)CC1)c1c[nH]c2ncccc12 [Compound 270, N-[3-[4-(1,2-Benzothiazol-3-yl)piperazin-1-yl]propyl]-1H-pyrrolo[2,3-b]pyridine-3-sulphonamide]	82	70	12	89	82	74	75	88
